From patent US20150283139A1, “CANCER TREATMENT METHOD” (SmithKline Beecham (Cork) Limited, priority 2004, published 2015)

Assays:
[1] = in vivo; cited from earlier work
[2] = tested on: non small cell lung cancer (NSCLC) brain metastases; conditions: eight subjects with newly diagnosed, untreated NSCLC brain metastases; cited from earlier work
NSCLC adenocarcinoma = conditions: first-line gefitinib, Asian, female, non-smokers; cited from earlier work
[3] = tested on: brain metastases from erbB-2 overexpressing, metastatic breast cancer; test: Clinical study of orally administered lapatinib, PET scan of brain lesions; type: in vivo, human; conditions: one patient, 750 mg lapatinib twice daily, previously treated with trastuzumab
Text: Safety and efficacy assessments (independent review) were to be carried out at 2 and 4-week intervals respectively. PET scans were to be run at baseline, 1 week and 8 weeks and MRI at baseline, 8 weeks, and 16 weeks.

For Cn1nnc2c(C(N)=O)ncn2c1=O [Temozolomide], the “crossing of the blood-brain barrier” value [1] is listed as “readily crosses the blood-brain barrier”.

In the case of COc1cc2ncnc(Nc3ccc(F)c(Cl)c3)c2cc1OCCCN1CCOCC1 [gefitinib], the “subjects with prolonged CNS partial responses” value [2] is given as “Seven out of eight”, the partial response rate (NSCLC adenocarcinoma) is given as 69% and the “systemic disease control rate” value (NSCLC adenocarcinoma) is given as 80%.

In the case of CS(=O)(=O)CCNCc1ccc(-c2ccc3ncnc(Nc4ccc(OCc5cccc(F)c5)c(Cl)c4)c3c2)o1.Cc1ccc(S(=O)(=O)O)cc1 [lapatinib, N-{3-Chloro-4-[(3-fluorobenzyl)oxy]phenyl}-6-[5-({[2-(methanesulphonyl)ethyl]amino}methyl)-2-furyl]-4-quinazolinamine ditosylate monhydrate], the “initial week 1 PET scan results (brain lesions)” value [3] is reported as “promising activity with a dramatic change in one lesion while other brain lesions showed less change or no change at all”.
